Assay results published in patent US20150313913A1, “POSITIVE ALLOSTERIC MODULATORS OF THE GABA-A RECEPTOR IN THE TREATMENT OF AUTISM” (UNIVERSITY OF WASHINGTON THROUGH ITS CENTER FOR …, priority 2013, published 2015).

How the values were obtained:
[1] = system: mouse genetic models of human Dravet syndrome and idiopathic autism; test: Summary: low-dose treatment of mouse models of autism; format: in vivo, mice; details: low doses that do not induce sedative or anxiolytic effects
Excerpt: The present disclosure describes methods effective in the rescue or amelioration of autism-like behavior, cognitive deficit, and context-dependent spatial memory.
In particular embodiments, these methods comprise the administration of low doses of a benzodiazepine to a human or other mammalian subject in order to rescue autism-like behavior, cognitive deficit, and context-dependent spatial memory. […] At such low doses, the administration of benzodiazepines, such as CLZ, to mammalian subjects will result in improvement of autism-like behavior, cognitive deficit, and context-dependent spatial learning and memory with much lower levels of sedation compared to mammalian subjects who receive typical higher doses of CLZ or other benzodiazepines that are used for treatment of anxiety, insomnia, or seizure.
The present disclosure is also directed to methods of rescuing or ameliorating indicia of Autism Spectrum disorders, autism-like behavior, cognitive deficit, and context-dependent spatial learning and memory in Dravet syndrome or idiopathic autism with α-2,3-specific GABA-A receptor positive allosteric modifiers. Such α-2,3-subunit selective GABA-A receptor positive allosteric modifiers include L838,417.
Therapeutic approaches to treat autistic traits in animal studies or in clinical trials have primarily focused on reducing excitatory neurotransmission in glutamatergic synapses to rebalance E/I ratio in autistic brain (Michalon et al., 2012; Yang et al., 2012). However, autistic-like behaviors in ASD mouse models are only partially reversed by drugs that inhibit excitatory neurotransmission, and these drugs also have unwanted side effects on wild-type mice (Henderson et al., 2012; Michalon et al., 2012; Yang et al., 2012). To overcome these drawbacks, the inventors focused on the opposing side, the GABAergic inhibitory transmission in autistic brain. Their results highlight the potential for therapy of autistic-like behaviors and cognitive deficit in ASD by low-dose treatment with subunit-selective benzodiazepines and other positive allosteric modulators of GABA-A receptors. […] It is possible that the biphasic dose-response relationship of the positive allosteric modulators reflects their actions on receptors containing α2,3 subunits at low doses and on receptors containing α1 subunits at higher doses.

[2] = system: GABA-A α2, α3 and α5 subtypes; details: cited from earlier work
[3] = target: T1, GABA-A α1 subtype (Homo sapiens, UniProt P14867+P18507); details: cited from earlier work
T1 sequence (P14867 28-456): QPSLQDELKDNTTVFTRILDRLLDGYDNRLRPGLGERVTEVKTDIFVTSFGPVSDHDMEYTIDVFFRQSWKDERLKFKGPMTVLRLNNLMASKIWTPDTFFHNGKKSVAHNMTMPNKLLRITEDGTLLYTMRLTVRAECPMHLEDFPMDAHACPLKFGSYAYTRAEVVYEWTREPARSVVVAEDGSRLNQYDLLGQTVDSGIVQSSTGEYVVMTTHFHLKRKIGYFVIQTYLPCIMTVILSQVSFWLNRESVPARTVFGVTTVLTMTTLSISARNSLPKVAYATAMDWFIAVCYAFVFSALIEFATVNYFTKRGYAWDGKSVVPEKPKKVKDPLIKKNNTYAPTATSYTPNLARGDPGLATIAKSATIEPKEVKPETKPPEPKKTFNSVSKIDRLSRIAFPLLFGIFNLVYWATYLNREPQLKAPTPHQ
T1 sequence (P18507 40-467 limits assumed): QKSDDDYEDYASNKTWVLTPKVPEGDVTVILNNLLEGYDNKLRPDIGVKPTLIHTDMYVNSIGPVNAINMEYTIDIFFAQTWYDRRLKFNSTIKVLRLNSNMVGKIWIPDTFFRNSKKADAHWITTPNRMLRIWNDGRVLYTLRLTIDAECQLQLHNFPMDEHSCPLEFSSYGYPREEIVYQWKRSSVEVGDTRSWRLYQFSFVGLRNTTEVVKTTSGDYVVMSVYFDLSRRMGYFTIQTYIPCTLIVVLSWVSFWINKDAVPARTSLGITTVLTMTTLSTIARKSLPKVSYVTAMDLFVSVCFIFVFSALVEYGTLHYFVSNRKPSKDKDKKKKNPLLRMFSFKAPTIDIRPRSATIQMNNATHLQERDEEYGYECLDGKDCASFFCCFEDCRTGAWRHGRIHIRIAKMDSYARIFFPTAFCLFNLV
T1 sequence (P28472 26-473 partner): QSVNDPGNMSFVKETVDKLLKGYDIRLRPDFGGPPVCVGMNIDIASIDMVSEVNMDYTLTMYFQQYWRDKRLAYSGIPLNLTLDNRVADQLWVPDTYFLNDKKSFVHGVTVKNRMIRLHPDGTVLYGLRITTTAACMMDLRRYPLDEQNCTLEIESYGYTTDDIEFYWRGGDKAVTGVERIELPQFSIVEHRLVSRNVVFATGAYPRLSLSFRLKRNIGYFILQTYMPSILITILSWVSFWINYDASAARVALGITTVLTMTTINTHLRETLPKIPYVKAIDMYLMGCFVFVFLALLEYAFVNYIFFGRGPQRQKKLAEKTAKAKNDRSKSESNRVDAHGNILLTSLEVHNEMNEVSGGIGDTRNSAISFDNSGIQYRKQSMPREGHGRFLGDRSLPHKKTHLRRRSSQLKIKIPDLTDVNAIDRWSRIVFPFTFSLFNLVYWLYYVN

[4] = cited from earlier work

Row | Structure (SMILES) | autistic-like behaviors and cognitive deficit in BTBR mice (summary) [1] | action at α2, α3 and α5 subtypes [2] | action at the α1 subtype [3] | substitution for chlordiazepoxide in animals ([4]; drug discrimination) | substitution for zolpidem in animals ([4]; drug discrimination) | sedative effects in animal studies ([4]; even at high doses)
1 | O=C1CN=C(c2ccccc2Cl)c2cc([N+](=O)[O-])ccc2N1 [Clonazepam] | improved | – | – | – | – | –
2 | Cn1ncnc1COc1nn2c(-c3cc(F)ccc3F)nnc2cc1C(C)(C)C [L-838,417] | improved | partial agonist | antagonist | substitutes for the anxiolytic benzodiazepine chlordiazepoxide | not for the hypnotic imidazopyridine drug zolpidem | no sedative effects
